In the first assay the test system is m-IMCD3 cells. Nature of the assay: Inhibition of PGE2-stimulated in vitro cyst formation in m-IMCD3 cells. Particulars: Mus musculus, mIMCD3, 144 h, 3 μM; mean cyst area, 100% for (DMSO + PGE2) and 0% for DMSO control; 6 days of culture; read-out: % Cyst area after incubation with 3 μM test compound. Type of assay: cell-based, mouse. In short, it runs like this: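 Mean cyst area after 6 days, expressed relative to DMSO+PGE2 (100%) and DMSO alone (0%), from z-stack images. Mouse m-IMCD3 spheroids grew in collagen I/Matrigel gels and received PGE2 (100 nM final) with test compound (0.1% DMSO) starting 18–24 h post-plating, media refreshed at day 2 or 3.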
For the compound `CC1(C)CN(C(=O)[C@H](O)C2CCCC2)Cc2sc(N3C4CCC3CNC4)nc21` [Example 262, (2R)-1-(2-(3,8-diazabicyclo[3.2.1]octan-8-yl)-7,7-dimethyl-6,7-dihydrothiazolo[5,4-c]pyridin-5(4H)-yl)-2-cyclopentyl-2-hydroxyethan-1-one], the activity at 3 µM is 23%.

Take `O=C(c1nc2ccccc2o1)N1CCc2nc(N3C4CCC3CNC4)sc2C1` [Example 190, (2-(3,8-diazabicyclo[3.2.1]octan-8-yl)-6,7-dihydrothiazolo[5,4-c]pyridin-5(4H)-yl)(benzo[d]oxazol-2-yl)methanone]: the activity at 3 µM was found to be 1%. Regarding `Cc1ccc(C(=O)N2CCc3nc(N4C5CCC4CNC5)sc3C2)c(C)c1` [Example 225, (2-(3,8-diazabicyclo[3.2.1]octan-8-yl)-6,7-dihydrothiazolo[5,4-c]pyridin-5(4H)-yl)(2,4-dimethylphenyl)methanone], the activity at 3 µM was -1%.

On to `O=C(c1ccccc1Cl)N1CCc2nc(N3C4CCC3CNC4)sc2C1` [Example 210, (2-(3,8-diazabicyclo[3.2.1]octan-8-yl)-6,7-dihydrothiazolo[5,4-c]pyridin-5(4H)-yl)(2-chlorophenyl)methanone], for which the activity at 3 µM came out at 11%. In the case of `O=C(C1CCc2ccccc2O1)N1CCc2nc(N3C4CCC3CNC4)sc2C1` (stereo not drawn) [Example 181, (2-(3,8-diazabicyclo[3.2.1]octan-8-yl)-6,7-dihydrothiazolo[5,4-c]pyridin-5(4H)-yl)(chroman-2-yl)methanone], the activity at 3 µM was determined as 5%. Same read-out and setting: with `CC(F)(F)c1ccccc1C(=O)N1CCc2nc(N3C4CCC3CNC4)sc2C1` [Example 223, (2-(3,8-diazabicyclo[3.2.1]octan-8-yl)-6,7-dihydrothiazolo[5,4-c]pyridin-5(4H)-yl)(2-(1,1-difluoroethyl)phenyl)methanone] the figure was 14%; with `Cc1ccc(-c2nc3c(s2)CN(C(=O)CC2CCCC2)CC3)cn1` [Example 305, 2-cyclopentyl-1-(2-(6-methylpyridin-3-yl)-6,7-dihydrothiazolo[5,4-c]pyridin-5(4H)-yl)ethan-1-one], 26%; with `O=C(CC1CCCC1)N1CCc2nc(N3CC4CCC3CN4)sc2C1` (stereo not drawn) [Example 278, 1-(2-(2,5-diazabicyclo[2.2.2]octan-2-yl)-6,7-dihydrothiazolo[5,4-c]pyridin-5(4H)-yl)-2-cyclopentylethan-1-one], 2%. Same read-out and setting: then `O=C(c1ccc(C2CC2)cc1)N1CCc2nc(N3C4CCC3CNC4)sc2C1` [Example 228, (2-(3,8-diazabicyclo[3.2.1]octan-8-yl)-6,7-dihydrothiazolo[5,4-c]pyridin-5(4H)-yl)(4-cyclopropylphenyl)methanone], with -6%; and `Cc1cc(F)ncc1C(=O)N1CCc2nc(N3C4CCC3CNC4)sc2C1` [Example 242, (2-(3,8-diazabicyclo[3.2.1]octan-8-yl)-6,7-dihydrothiazolo[5,4-c]pyridin-5(4H)-yl)(6-fluoro-4-methylpyridin-3-yl)methanone], with 29%. The same measure, in the same setting: with `COc1cc(C)ccc1C(=O)N1CCc2nc(N3C4CCC3CNC4)sc2C1` [Example 219, (2-(3,8-diazabicyclo[3.2.1]octan-8-yl)-6,7-dihydrothiazolo[5,4-c]pyridin-5(4H)-yl)(2-methoxy-4-methylphenyl)methanone] the figure was 11%; with `O=C(c1cccc2cccnc12)N1CCc2nc(N3C4CCC3CNC4)sc2C1` [Example 237, (2-(3,8-diazabicyclo[3.2.1]octan-8-yl)-6,7-dihydrothiazolo[5,4-c]pyridin-5(4H)-yl)(quinolin-8-yl)methanone], 37%; with `COc1nc(F)ccc1C(=O)N1CCc2nc(N3C4CCC3CNC4)sc2C1` [Example 240, (2-(3,8-diazabicyclo[3.2.1]octan-8-yl)-6,7-dihydrothiazolo[5,4-c]pyridin-5(4H)-yl)(6-fluoro-2-methoxypyridin-3-yl)methanone], -3%.

For the compound `CC(C)c1ccccc1C(=O)N1CCc2nc(N3C4CCC3CNC4)sc2C1` [Example 215, (2-(3,8-diazabicyclo[3.2.1]octan-8-yl)-6,7-dihydrothiazolo[5,4-c]pyridin-5(4H)-yl)(2-isopropylphenyl)methanone], the activity at 3 µM was 7%. As to `COC(C(=O)N1CCc2nc(N3C4CCC3CNC4)sc2C1)C1(C)CCCC1` (stereo not drawn) [Example 249, 1-(2-(3,8-diazabicyclo[3.2.1]octan-8-yl)-6,7-dihydrothiazolo[5,4-c]pyridin-5(4H)-yl)-2-methoxy-2-(1-methylcyclopentyl)ethan-1-one], the activity at 3 µM is -5%.

`COc1cc(F)cc(C#N)c1OCC(=O)N1CCc2nc(N3C4CCC3CNC4)sc2C1` [Example 253, 2-(2-(2-(3,8-diazabicyclo[3.2.1]octan-8-yl)-6,7-dihydrothiazolo[5,4-c]pyridin-5(4H)-yl)-2-oxoethoxy)-5-fluoro-3-methoxybenzonitrile]: the activity at 3 µM is -4%. As for `O=C(c1ccccc1OC(F)F)N1CCc2nc(N3C4CCC3CNC4)sc2C1` [Example 203, (2-(3,8-diazabicyclo[3.2.1]octan-8-yl)-6,7-dihydrothiazolo[5,4-c]pyridin-5(4H)-yl)(2-(difluoromethoxy)phenyl)methanone], the activity at 3 µM is -1%. The same measure, in the same setting: with `CC(C)(C)CC(=O)N1CCc2nc(N3CCNCC3)sc2C1` [Example 274, 3,3-dimethyl-1-(2-(piperazin-1-yl)-6,7-dihydrothiazolo[5,4-c]pyridin-5(4H)-yl) butan-1-one] the figure was 14%. As for `O=C(c1cccc(F)c1)N1CCc2nc(N3C4CCC3CNC4)sc2C1` [Example 235, (2-(3,8-diazabicyclo[3.2.1]octan-8-yl)-6,7-dihydrothiazolo[5,4-c]pyridin-5(4H)-yl)(3-fluorophenyl)methanone], the activity at 3 µM was -3%. The same measure, in the same setting: then `CC(C)(C#N)CC(=O)N1CCc2nc(N3C4CCC3CNC4)sc2C1` [Example 178, 4-(2-(3,8-diazabicyclo[3.2.1]octan-8-yl)-6,7-dihydrothiazolo[5,4-c]pyridin-5(4H)-yl)-2,2-dimethyl-4-oxobutanenitrile], with 24%; and `Cc1cncc(-c2nc3c(s2)CN(C(=O)CC2CCCC2)CC3)c1` [Example 306, 2-cyclopentyl-1-(2-(5-methylpyridin-3-yl)-6,7-dihydrothiazolo[5,4-c]pyridin-5(4H)-yl)ethan-1-one], with -3%.

The assay is the same for the next values; noted with them: Mus musculus, mIMCD3, 144 h, 10 μM; mean cyst area, 100% for (DMSO + PGE2) and 0% for DMSO control; 6 days of culture; read-out: % Cyst area after incubation with 10 μM test compound.
Take `O=C(C1CCCC1)N1CCc2nc(N3C4CCC3CNC4)sc2C1` [Example 22, (2-(3,8-diazabicyclo[3.2.1]octan-8-yl)-6,7-dihydrothiazolo[5,4-c]pyridin-5(4H)-yl)(cyclopentyl)methanone]: the activity at 10 µM was -2%. For `O=C(N1CCc2nc(N3C4CCC3CNC4)sc2C1)C1(Oc2ccccc2)CC1` [Example 31, (2-(3,8-diazabicyclo[3.2.1]octan-8-yl)-6,7-dihydrothiazolo[5,4-c]pyridin-5(4H)-yl)(1-phenoxycyclopropyl)methanone], the activity at 10 µM was determined as 7%. Same read-out and setting: then `CC(C)CC(=O)N1CCc2nc(N3C4CCC3CNC4)sc2C1` [Example 9, 1-(2-(3,8-diazabicyclo[3.2.1]octan-8-yl)-6,7-dihydrothiazolo[5,4-c]pyridin-5(4H)-yl)-3-methylbutan-1-one], with 0%; and `CC(C)OCC(=O)N1CCc2nc(N3C4CCC3CNC4)sc2C1` [Example 4, 1-(2-(3,8-diazabicyclo[3.2.1]octan-8-yl)-6,7-dihydrothiazolo[5,4-c]pyridin-5(4H)-yl)-2-isopropoxyethan-1-one], with 12%; and `O=C(NC1CCCCC1)N1CCc2nc(N3C4CCC3CNC4)sc2C1` [Example 52], with -6%. The same measure, in the same setting: with `CCC(C)(C)C(=O)N1CCc2nc(N3C4CCC3CNC4)sc2C1` [Example 154, 1-(2-(3,8-diazabicyclo[3.2.1]octan-8-yl)-6,7-dihydrothiazolo[5,4-c]pyridin-5(4H)-yl)-2,2-dimethylbutan-1-one] the figure was -13%; with `N#CC(C(=O)N1CCc2nc(N3C4CCC3CNC4)sc2C1)C1CCCC1` (stereo not drawn) [Example 152, 3-(2-(3,8-diazabicyclo[3.2.1]octan-8-yl)-6,7-dihydrothiazolo[5,4-c]pyridin-5(4H)-yl)-2-cyclopentyl-3-oxopropanenitrile], 4%; with `O=C(Cc1ccc(F)cc1F)N1CCc2nc(N3C4CCC3CNC4)sc2C1` [Example 144, 1-(2-(3,8-diazabicyclo[3.2.1]octan-8-yl)-6,7-dihydrothiazolo[5,4-c]pyridin-5(4H)-yl)-2-(2,4-difluorophenyl)ethan-1-one], 13%. Same read-out and setting: with `CC1(NC(=O)N2CCc3nc(N4C5CCC4CNC5)sc3C2)CCC1` [Example 124, 2-(3,8-diazabicyclo[3.2.1]octan-8-yl)-N-(1-methylcyclobutyl)-6,7-dihydrothiazolo[5,4-c]pyridine-5(4H)-carboxamide] the figure was -12%; with `COc1cc(F)ccc1OCC(=O)N1CCc2nc(N3C4CCC3CNC4)sc2C1` [Example 143, 1-(2-(3,8-diazabicyclo[3.2.1]octan-8-yl)-6,7-dihydrothiazolo[5,4-c]pyridin-5(4H)-yl)-2-(4-fluoro-2-methoxyphenoxy)ethan-1-one], 2%.

With `CN1CC2CCC(C1)N2c1nc2c(s1)CN(C(=O)CC1CCCC1)C2` [Example 83, 2-cyclopentyl-1-(2-(3-methyl-3,8-diazabicyclo[3.2.1]octan-8-yl)-4,6-dihydro-5H-pyrrolo[3,4-d]thiazol-5-yl)ethan-1-one], the activity at 10 µM was determined as 4%. On to `O=C(Nc1ccccc1)N1CCc2nc(N3C4CCC3CNC4)sc2C1` [Example 57, 2-(3,8-diazabicyclo[3.2.1]octan-8-yl)-N-phenyl-6,7-dihydrothiazolo[5,4-c]pyridine-5(4H)-carboxamide], for which the activity at 10 µM is -3%.

These data come from patent publication US20250388604A1, “Compounds and Their Use as PDE4 Activators” (Mironid Limited, priority 2022, published 2025).
